Starred links: 1 amine or outer side, 2 acyl side, 3 side chain; linkers in the order of their positions; H or OH if unused. Positions of bridges follow the written chain, without caps; N, C: chain ends. Non-standard residues stand in square brackets, D forms with d. Residues, ends and D or L forms follow the SMILES beside them. *: point of attachment. Trp(1-CH2COOH) = N[C@@H](Cc1cn(CC(=O)O)c2ccccc12)C(=O)O; X3 = CN([C@@H](Cc1cccc(C(=O)[*:3])c1)C(=O)[*:2])[*:1]; NMePhe(4-COOH) = CN[C@@H](Cc1ccc(C(=O)O)cc1)C(=O)O; X1 = O=C([C@H](Cc1cccc(C(=O)[*:3])c1)N[*:1])[*:2]; Nle(6-morpholino) = N[C@@H](CCCCN1CCOCC1)C(=O)O; NMePhe(3-Cl) = CN[C@@H](Cc1cccc(Cl)c1)C(=O)O; NMeY = CN[C@@H](Cc1ccc(O)cc1)C(=O)O; NH(CH2CH2O)4Me = COCCOCCOCCOCCN*; PEG4 = NCCOCCOCCOCCOCCC(=O)O; Carboxymethyl = O=C(O)C*
Biological target: T1, human transferrin receptor (hTfR) (Homo sapiens, UniProt P02786)
T1 construct: made in house
Assay: Evaluation of molecular interaction between transferrin receptor (hTfR) and peptide using surface plasmon resonance (SPR)
Format: binding
Conditions: surface plasmon resonance, binding to hTfR; KD class symbol; read-out: SPR (KD value)
Method in brief: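 SPR, single-cycle kinetics; hTfR dimer on NTA chip via Ni capture plus EDC/NHS coupling. Analyte peptide 100, 50, 25, 10, 5 nM. Running buffer: 10 mM HEPES pH 8.0, 150 mM NaCl, 0.05% Tween 20, 0.1% BSA, 1.0% DMSO. KD by least-squares fit.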

T1 sequence (P02786 89-760 limits assumed): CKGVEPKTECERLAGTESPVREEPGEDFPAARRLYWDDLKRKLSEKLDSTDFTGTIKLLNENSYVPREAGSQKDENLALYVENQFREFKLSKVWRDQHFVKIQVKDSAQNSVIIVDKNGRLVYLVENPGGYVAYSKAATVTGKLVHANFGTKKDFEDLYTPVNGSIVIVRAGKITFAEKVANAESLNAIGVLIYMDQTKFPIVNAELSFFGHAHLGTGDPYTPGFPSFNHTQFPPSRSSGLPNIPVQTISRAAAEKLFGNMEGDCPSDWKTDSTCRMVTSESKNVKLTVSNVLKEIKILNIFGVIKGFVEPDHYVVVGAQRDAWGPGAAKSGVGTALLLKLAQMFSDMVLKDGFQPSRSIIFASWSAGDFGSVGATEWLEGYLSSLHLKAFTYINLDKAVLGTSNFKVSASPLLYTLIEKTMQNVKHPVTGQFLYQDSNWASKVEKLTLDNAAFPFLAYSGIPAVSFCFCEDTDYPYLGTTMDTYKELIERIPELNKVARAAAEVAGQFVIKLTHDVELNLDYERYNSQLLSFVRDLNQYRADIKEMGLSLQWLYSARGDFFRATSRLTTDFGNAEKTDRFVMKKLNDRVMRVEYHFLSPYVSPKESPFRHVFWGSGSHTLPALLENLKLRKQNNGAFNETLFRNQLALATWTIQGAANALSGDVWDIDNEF

| SMILES | Kd [nM] |
| --- | --- |
| CC[C@H](C)[C@@H]1NC(=O)[C@H](Cc2ccc(OCC(=O)O)cc2)NC(=O)[C@H](Cc2ccc(O)cc2)NC(=O)[C@H](CC(N)=O)NC(=O)[C@H](Cc2c[nH]c3ccccc23)NC(=O)[C@H](C(C)C)NC(=O)[C@H](Cc2cccc(Cl)c2)N(C)C(=O)[C@H](C(C)C)NC(=O)[C@H](C)NC(=O)CSC[C@@H](C(=O)NCC(=O)N[C@H](CO)C(=O)N[C@H](CO)C(=O)N[C@H](CO)C(=O)N[C@H](CO)C(=O)N[C@H](CO)C(N)=O)NC(=O)[C@H](Cc2ccc(O)cc2)N(C)C(=O)[C@H](CCC(=O)NCCOCCOCCOCCOC)NC(=O)[C@H](CCCNC(=N)N)NC(=O)[C@H](CCC(=O)NCCOCCOCCOCCOC)NC(=O)[C@H]([C@@H](C)CC)NC1=O [compound 125] | 1 to 100 |
| CC[C@H](C)[C@@H]1NC(=O)[C@H](Cc2ccc(OCC(=O)O)cc2)NC(=O)[C@H](Cc2ccc(O)cc2)NC(=O)[C@H](CC(N)=O)NC(=O)[C@H](Cc2c[nH]c3ccccc23)NC(=O)[C@H](C(C)C)NC(=O)[C@H](Cc2cccc(Cl)c2)N(C)C(=O)[C@H](C(C)C)NC(=O)[C@H](C)NC(=O)CSC[C@@H](C(=O)NCCOCCOCCOCCOCCC(N)=O)NC(=O)[C@H](Cc2ccc(O)cc2)N(C)C(=O)[C@H](Cc2cccc(C(=O)NCCOCCOCCOCCOC)c2)NC(=O)[C@H](CCCNC(=N)N)NC(=O)[C@H](CCC(=O)NCCOCCOCCOCCOC)NC(=O)[C@H]([C@@H](C)CC)NC1=O [compound 126] | 1 to 100 |
| CC[C@H](C)[C@@H]1NC(=O)[C@H](Cc2ccc(OCC(=O)O)cc2)NC(=O)[C@H](Cc2ccc(O)cc2)NC(=O)[C@H](CC(N)=O)NC(=O)[C@H](Cc2c[nH]c3ccccc23)NC(=O)[C@H](C(C)C)NC(=O)[C@H](Cc2cccc(Cl)c2)N(C)C(=O)[C@H](C(C)C)NC(=O)[C@H](C)NC(=O)CSC[C@@H](C(=O)NCCOCCOCCOCCOCCC(N)=O)NC(=O)[C@H](Cc2ccc(C(=O)NCCOCCOCCOCCOC)cc2)N(C)C(=O)[C@H](Cc2cccc(C(=O)NCCOCCOCCOCCOC)c2)NC(=O)[C@H](CCCNC(=N)N)NC(=O)[C@H](CCC(N)=O)NC(=O)[C@H]([C@@H](C)CC)NC1=O [compound 127] ({CH2CO}-AV[NMePhe(3-Cl)]VWNYY(Carboxymethyl)IIQR[X1](NH(CH2CH2O)4Me)[NMePhe(4-COOH)](NH(CH2CH2O)4Me)C[PEG4]-NH2; thioether N-15) | 1 to 100 |
| CC[C@H](C)[C@@H]1NC(=O)[C@H](Cc2ccc(OCC(=O)O)cc2)NC(=O)[C@H](Cc2ccc(O)cc2)NC(=O)[C@H](CC(N)=O)NC(=O)[C@H](Cc2c[nH]c3ccccc23)NC(=O)[C@H](C(C)C)NC(=O)[C@H](Cc2cccc(Cl)c2)N(C)C(=O)[C@H](C(C)C)NC(=O)[C@H](C)NC(=O)CSC[C@@H](C(=O)NCCOCCOCCOCCOCCC(N)=O)NC(=O)[C@H](Cc2cccc(C(=O)NCCOCCOCCOCCOC)c2)N(C)C(=O)[C@H](Cc2cccc(C(=O)NCCOCCOCCOCCOC)c2)NC(=O)[C@H](CCCNC(=N)N)NC(=O)[C@H](CCC(N)=O)NC(=O)[C@H]([C@@H](C)CC)NC1=O [compound 128] ({CH2CO}-AV[NMePhe(3-Cl)]VWNYY(Carboxymethyl)IIQR[X1](NH(CH2CH2O)4Me)[X3](NH(CH2CH2O)4Me)C[PEG4]-NH2; thioether N-15) | 1 to 100 |
| CC[C@H](C)[C@@H]1NC(=O)[C@H](Cc2ccc(OCC(=O)O)cc2)NC(=O)[C@H](Cc2ccc(O)cc2)NC(=O)[C@H](CC(N)=O)NC(=O)[C@H](Cc2c[nH]c3ccccc23)NC(=O)[C@H](C(C)C)NC(=O)[C@H](Cc2cccc(Cl)c2)N(C)C(=O)[C@H](C(C)C)NC(=O)[C@H](C)NC(=O)CSC[C@@H](C(=O)NCC(=O)N[C@H](CO)C(=O)N[C@H](CO)C(=O)N[C@H](CO)C(=O)N[C@H](CO)C(=O)N[C@H](CO)C(N)=O)NC(=O)[C@H](Cc2cccc(C(=O)NCCOCCOCCOCCOC)c2)N(C)C(=O)[C@H](Cc2cccc(C(=O)NCCOCCOCCOCCOC)c2)NC(=O)[C@H](CCCNC(=N)N)NC(=O)[C@H](CCC(N)=O)NC(=O)[C@H]([C@@H](C)CC)NC1=O [compound 129] | 1 to 100 |
| CC[C@H](C)[C@@H]1NC(=O)[C@H](Cc2ccc(OCC(=O)O)cc2)NC(=O)[C@H](Cc2ccc(O)cc2)NC(=O)[C@H](CC(N)=O)NC(=O)[C@H](Cc2c[nH]c3ncccc23)NC(=O)[C@H](C(C)C)NC(=O)[C@H](Cc2cccc(Cl)c2)N(C)C(=O)[C@H](C(C)C)NC(=O)[C@H](C)NC(=O)CSC[C@@H](C(=O)NCCOCCOCCOCCOCCC(N)=O)NC(=O)[C@H](Cc2ccc(O)cc2)N(C)C(=O)[C@H](Cc2cccc(C(=O)NCCOCCOCCOCCOC)c2)NC(=O)[C@H](CCCNC(=N)N)NC(=O)[C@H](CCC(=O)NCCOCCOCCOCCOC)NC(=O)[C@H]([C@@H](C)CC)NC1=O [compound 130] | 1 to 100 |
| CC[C@H](C)[C@@H]1NC(=O)[C@H](Cc2ccc(OCC(=O)O)cc2)NC(=O)[C@H](Cc2ccc(O)cc2)NC(=O)[C@H](CC(N)=O)NC(=O)[C@H](Cc2c[nH]c3ncccc23)NC(=O)[C@H](C(C)C)NC(=O)[C@H](Cc2cccc(Cl)c2)N(C)C(=O)[C@H](C(C)C)NC(=O)[C@H](C)NC(=O)CSC[C@@H](C(=O)NCCOCCOCCOCCOCCC(N)=O)NC(=O)[C@H](Cc2ccc(C(=O)NCCOCCOCCOCCOC)cc2)N(C)C(=O)[C@H](Cc2cccc(C(=O)NCCOCCOCCOCCOC)c2)NC(=O)[C@H](CCCNC(=N)N)NC(=O)[C@H](CCC(N)=O)NC(=O)[C@H]([C@@H](C)CC)NC1=O [compound 131] | 1 to 100 |

Results, then the compound that gave them:

| Kd [nM] | SMILES |
| --- | --- |
| < 1 | CC[C@H](C)[C@@H]1NC(=O)[C@H](Cc2ccc(OCC(=O)O)cc2)NC(=O)[C@H](Cc2ccc(O)cc2)NC(=O)[C@H](CC(N)=O)NC(=O)[C@H](Cc2cn(CC(=O)O)c3ccccc23)NC(=O)[C@H](C(C)C)NC(=O)[C@H](Cc2cccc(Cl)c2)N(C)C(=O)[C@H](C(C)C)NC(=O)[C@H](C)NC(=O)CSC[C@@H](C(=O)NCCOCCOCCOCCOCCC(N)=O)NC(=O)[C@H](Cc2ccc(O)cc2)N(C)C(=O)[C@H](Cc2ccccc2)NC(=O)[C@H](CCCCN2CCOCC2)NC(=O)[C@H](CCC(=O)NCCOCCOCCOCCOC)NC(=O)[C@H]([C@@H](C)CC)NC1=O [compound 119] ({CH2CO}-AV[NMePhe(3-Cl)]V[Trp(1-CH2COOH)]NYY(Carboxymethyl)IIE(NH(CH2CH2O)4Me)[Nle(6-morpholino)]F[NMeY]C[PEG4]-NH2; thioether N-15) |
| 1 to 100 | CC[C@H](C)[C@@H]1NC(=O)[C@H](Cc2ccc(OCC(=O)O)cc2)NC(=O)[C@H](Cc2ccc(O)cc2)NC(=O)[C@H](CC(N)=O)NC(=O)[C@H](Cc2c[nH]c3ccccc23)NC(=O)[C@H](C(C)C)NC(=O)[C@H](Cc2cccc(Cl)c2)N(C)C(=O)[C@H](C(C)C)NC(=O)[C@H](C)NC(=O)CSC[C@@H](C(=O)NCCOCCOCCOCCOCCC(N)=O)NC(=O)[C@H](Cc2ccc(O)cc2)N(C)C(=O)[C@H](Cc2ccccc2)NC(=O)[C@H](CCCCN2CCOCC2)NC(=O)[C@H](CCC(=O)NCCOCCOCCOCCOC)NC(=O)[C@H]([C@@H](C)CC)NC1=O [compound 120] |
| 1 to 100 | CC[C@H](C)[C@@H]1NC(=O)[C@H](Cc2ccc(OCC(=O)O)cc2)NC(=O)[C@H](Cc2ccc(O)cc2)NC(=O)[C@H](CC(N)=O)NC(=O)[C@H](Cc2c[nH]c3ccccc23)NC(=O)[C@H](C(C)C)NC(=O)[C@H](Cc2cccc(Cl)c2)N(C)C(=O)[C@H](C(C)C)NC(=O)[C@H](C)NC(=O)CSC[C@@H](C(=O)NCCOCCOCCOCCOCCC(N)=O)NC(=O)[C@H](Cc2ccc(O)cc2)N(C)C(=O)[C@H](Cc2ccccc2)NC(=O)[C@H](CCCCN)NC(=O)[C@H](CCC(=O)NCCOCCOCCOCCOC)NC(=O)[C@H]([C@@H](C)CC)NC1=O [compound 121] ({CH2CO}-AV[NMePhe(3-Cl)]VWNYY(Carboxymethyl)IIE(NH(CH2CH2O)4Me)KF[NMeY]C[PEG4]-NH2; thioether N-15) |
| 1 to 100 | CC[C@H](C)[C@@H]1NC(=O)[C@H](Cc2ccc(OCC(=O)O)cc2)NC(=O)[C@H](Cc2ccc(O)cc2)NC(=O)[C@H](CC(N)=O)NC(=O)[C@H](Cc2c[nH]c3ccccc23)NC(=O)[C@H](C(C)C)NC(=O)[C@H](Cc2cccc(Cl)c2)N(C)C(=O)[C@H](C(C)C)NC(=O)[C@H](C)NC(=O)CSC[C@@H](C(=O)NCCOCCOCCOCCOCCC(N)=O)NC(=O)[C@H](Cc2ccc(O)cc2)N(C)C(=O)[C@H](Cc2ccccc2)NC(=O)[C@H](CCCCN(C)C)NC(=O)[C@H](CCC(=O)NCCOCCOCCOCCOC)NC(=O)[C@H]([C@@H](C)CC)NC1=O [compound 122] |
| 1 to 100 | CC[C@H](C)[C@@H]1NC(=O)[C@H](Cc2ccc(OCC(=O)O)cc2)NC(=O)[C@H](Cc2ccc(O)cc2)NC(=O)[C@H](CC(N)=O)NC(=O)[C@H](Cc2c[nH]c3ccccc23)NC(=O)[C@H](C(C)C)NC(=O)[C@H](Cc2cccc(Cl)c2)N(C)C(=O)[C@H](C(C)C)NC(=O)[C@H](C)NC(=O)CSC[C@@H](C(=O)NCCOCCOCCOCCOCCC(N)=O)NC(=O)[C@H](Cc2ccc(O)cc2)N(C)C(=O)[C@H](Cc2ccccc2)NC(=O)[C@H](CCC(N)=O)NC(=O)[C@H](CCC(=O)NCCOCCOCCOCCOC)NC(=O)[C@H]([C@@H](C)CC)NC1=O [compound 123] ({CH2CO}-AV[NMePhe(3-Cl)]VWNYY(Carboxymethyl)IIE(NH(CH2CH2O)4Me)QF[NMeY]C[PEG4]-NH2; thioether N-15) |
| 1 to 100 | CC[C@H](C)[C@@H]1NC(=O)[C@H](Cc2ccc(OCC(=O)O)cc2)NC(=O)[C@H](Cc2ccc(O)cc2)NC(=O)[C@H](CC(N)=O)NC(=O)[C@H](Cc2c[nH]c3ccccc23)NC(=O)[C@H](C(C)C)NC(=O)[C@H](Cc2cccc(Cl)c2)N(C)C(=O)[C@H](C(C)C)NC(=O)[C@H](C)NC(=O)CSC[C@@H](C(=O)NCCOCCOCCOCCOCCC(N)=O)NC(=O)[C@H](Cc2ccc(O)cc2)N(C)C(=O)[C@H](CCC(=O)NCCOCCOCCOCCOC)NC(=O)[C@H](CCCNC(=N)N)NC(=O)[C@H](CCC(=O)NCCOCCOCCOCCOC)NC(=O)[C@H]([C@@H](C)CC)NC1=O [compound 124] ({CH2CO}-AV[NMePhe(3-Cl)]VWNYY(Carboxymethyl)IIE(NH(CH2CH2O)4Me)RE(NH(CH2CH2O)4Me)[NMeY]C[PEG4]-NH2; thioether N-15) |

Reference: patent US20260116920A1, “HUMAN TRANSFERRIN RECEPTOR BINDING PEPTIDE” (PEPTIDREAM INC., priority 2021, published 2026)
